# Experimental data reported in patent publication US7741520B2, “Sulfonanilide analogs as selective aromatase modulators (SAMs)” (The Ohio State University Research Foundation, priority 2006, dated 2010).
# Columns and labels:
# [1] = test system: aromatase activity in SK-BR-3 breast cancer cells; assay: Aromatase tritiated water-release assay in SK-BR-3 cell lines (first compound set); assay type: cell-based, human; settings: SK-BR-3 cells, 24 h treatment; five concentrations, each in triplicate; read-out: IC50 (μM), suppression of aromatase activity in SK-BR-3 breast cancer cells
# Experimental: Aromatase Tritiated Water-Release Assay in SK-BR-3 Cell Lines. SK-BR-3 cells were obtained from ATCC (Rockville, Md.). Cell cultures were maintained in phenol red-free custom media (MEM, Earle's salts, 1.5× amino acids, 2× nonessential amino acids, L-glutamine, 1.5× vitamins, Gibco BRL) supplemented with 10% fetal bovine serum (FBS), 2 mM L-glutamine, and 20 mg/L gentamycin. Measurement of aromatase enzyme activity was based on the tritium water release assay. 24 Cells in 100 mm Petri dish were treated with 0.1% DMSO (control), and inhibitors at the indicated concentrations. After 24 h, the media was changed and the cells were incubated with 100 nM [1â-3H]-androst-4-ene-3,17-dione ([…]) for 3 h. Subsequently, the reaction mixture was removed, and proteins were precipitated using 10% trichloroacetic acid at 42° C. for 20 min. After a brief centrifugation, the media was extracted three times with an equal amount of chloroform to extract unused substrate and further dextran-treated charcoal. After centrifugation, a 250-μL aliquot containing the product was counted in 5 mL of liquid scintillation mixture. Results were corrected for blanks and for the cell contents of culture flasks, and results were expressed as picomoles of 3H2O formed per hour incubation time per million live cells (pmol/h/10^6 cells). To determine the amount of cells in each flask, the cells were trypsinized and analyzed using the diphenylamine DNA assay adapted to a 96-well plate. (Natarajan N.; Shambaugh, G. E., 3rd; Elseth K. M.; Haines G. K.; Radosevich J. A. Adaptation of the diphenylamine (DPA) assay to a 96-well plate tissue culture format and comparison with the MTT assay. Biotechniques 1994, 17, 166-171; incorporated herein by reference). IC50 sigmoidal dose-response data were analyzed with Microsoft Excel and the Graphpad Prism (Version 3.0) program.
# [2] = target: T1, aromatase activity in JAR choriocarcinoma placental cells (Homo sapiens, UniProt P11511); assay: Tritiated water-release assay in JAR cells; assay type: cell-based; settings: 24 h, 15 μM (FIG. 11), read-out: decrease of aromatase activity in JAR cells
# T1 construct: JAR choriocarcinoma placental cells (which produce aromatase expression from promoter I.1 mediated by protein kinase C); host or cells: JAR
# T1 sequence (P11511 1-503): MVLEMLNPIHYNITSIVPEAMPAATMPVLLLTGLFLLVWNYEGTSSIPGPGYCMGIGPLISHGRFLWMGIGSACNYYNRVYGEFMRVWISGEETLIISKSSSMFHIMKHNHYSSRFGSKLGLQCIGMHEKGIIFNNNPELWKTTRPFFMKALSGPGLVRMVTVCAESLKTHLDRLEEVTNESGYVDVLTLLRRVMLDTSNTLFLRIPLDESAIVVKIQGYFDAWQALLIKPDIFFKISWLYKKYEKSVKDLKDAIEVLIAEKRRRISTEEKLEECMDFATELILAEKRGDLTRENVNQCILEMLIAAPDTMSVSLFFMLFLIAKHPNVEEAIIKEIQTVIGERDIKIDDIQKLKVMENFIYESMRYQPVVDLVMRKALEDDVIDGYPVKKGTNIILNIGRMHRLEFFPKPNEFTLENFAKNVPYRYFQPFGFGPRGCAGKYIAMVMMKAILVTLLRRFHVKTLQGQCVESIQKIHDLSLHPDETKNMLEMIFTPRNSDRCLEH
# Experimental: Cell Culture. AR and SK-BR-3 cells were obtained from ATCC (Rockville, Md.). SK-BR-3 cells were maintained in phenol red-free custom media (MEM, Earle's salts, 1.5× amino acids, 2× non-essential amino acids, L-glutamine, 1.5× vitamins, Gibco BRL) supplemented with 10% fetal bovine serum (FBS), 2 mM L-glutamine and 20 mg/L gentamycin. JAR cells were maintained in RPMI 1640 medium with 2 mM L-glutamine adjusted to contain 1.5 g/L sodium bicarbonate, 4.5 g/L glucose, 10 mM HEPES, and 1.0 mM sodium pyruvate, 90%; FBS, 10%. Fetal bovine serum was heat inactivated for 30 min in a 56° C. water bath before use. Cell cultures were grown at 37° C., in a humidified atmosphere of 5% CO2 in a Hereaus CO2 incubator. For all experiments, cells were plated in 6 well plates and grown to subconfluency. Before treatment, the media was changed to a defined one containing DMEM/F12 media (Sigma) with 1.0 mg/mL human albumin (OSU Hospital Pharmacy), 5.0 mg/L human transferin and 5.0 mg/L bovine insulin.
# Tritiated water-release assay in JAR and SK-BR-3 cell lines. Measurement of aromatase enzyme activity was based on the tritium water release assay. Cells in six well plates were treated with 0.1% DMSO (control), and inhibitors at the indicated concentrations. After 24 hours, the cells were incubated 3 hours (SK-BR-3 cells) or 1 hour (JAR cells) with fresh media along with 100 nM [1β-^3H]-androst-4-ene-3,17-dione (1 μCi). Subsequently, the reaction mixture was removed, and proteins were precipitated using 10% trichloroacetic acid at 42° C. for 20 min. After a brief centrifugation, the media was extracted three times with an equal amount of chloroform to remove remaining substrate and further treated with dextran-treated charcoal. After centrifugation, a 250-μl aliquot containing the product was counted in 5 ml of liquid scintillation mixture. Results were corrected for blanks and for the cell contents of culture flasks, and results were expressed as picomoles of ^3H2O formed per hour incubation time per million live cells (pmol/h/10^6 cells). To determine the amount of cells in each flask, the cells were lysed and analyzed using the diphenylamine DNA assay adapted to a 96-well plate. IC50 sigmoidal dose-response data were analyzed with Microsoft Excel and the Graphpad Prism (Version 3.0) program.
# Diphenylamine DNA Assay To determine the amount of viable cells in each flask, the cells were lysed with 0.5N NaOH aqueous solution and analyzed using the diphenylamine DNA assay adapted to a 96-well plate. DNA standards (0-30 μg) were prepared using double-stranded DNA reconstituted in PBS and added in triplicates directly to the wells. A uniform cell suspension was prepared from the 6 well plate in 300 μl 0.5N NaOH aqueous solution, and 60 μl of the unknown samples were added in triplicates to separate wells. A solution of 0.16% acetaldehyde in water was prepared and mixed at a 1:5 ratio with perchloric acid (20% vol/vol). This solution (60 μl) was added to each well along with 100 μl of a 4% diphenylamine solution in glacial acetic acid. The plates were incubated at 37° C. for 24 hours. After centrifugation, 100 μl supernatant of each well was transferred to a new 96 well plate, and the OD595 was measured using a microplater reader. The DNA concentration was determined by extrapolation to the standard curve and the amount of cells/well was calculated using the equation: 1 cell≈7 pg DNA.
# [3] = test system: CYP19 mRNA expression in SK-BR-3 cells; assay: CYP19 mRNA expression by real-time RT-PCR in SK-BR-3 cells; assay type: cell-based, human; settings: 5 μM, 24 h (FIG. 14)
# Experimental: (§1) RNA Extraction. Total RNA was isolated using the TRIzol reagent according to the manufacturer's protocol. Total RNA pellets were dissolved in DNase- and RNase-free water and quantitated using a spectrophotometer. The quality of RNA samples was determined by electrophoresis through agarose gels and staining with ethidium bromide; the 18S and 28S rRNA bands were visualized under ultraviolet light.
# (§2) cDNA Synthesis. Isolated total RNA (2 μg) was treated with DNase I Amplification grade, according to the recommended protocol to eliminate any DNA before reverse transcription. Treated total RNA was denatured at 65° C. for 5 min in the presence of 2.5 ng/μL random hexamers and 0.5 mM dNTP mix. The samples were snap-cooled on ice and centrifuged briefly. Complementary DNA (cDNA) was synthesized using Superscript II reverse transcriptase according to the recommended protocol. Briefly, the reactions were conducted in the presence of 1× First-Strand Buffer and 20 mM DTT at 42° C. for 50 min and consequently inactivated at 70° C. for 15 min. The cDNA generated was used as a template in realtime PCR reactions.
# Real-Time PCR. Real-time PCR was performed using the Opticon 2 system from MJ Research (Waltham, Mass.). For the CYP19 total gene the PCR reaction mixture consisted of Taqman Universal PCR Master Mix (Applied Biosystems), 600 nM of CYP19 primer (sense: 5′-TGTCTCTTTGTTCTTCATGCTATTTCTC-3′ (SEQ ID NO: 1); antisense: 5′-TCACCAATAACAGTCTGGATTTCC-3′) (SEQ ID NO: 2); 250 nM Taqman probe (6FAM 5′-TGCAAAGCACCCTAATGTTGAAGAGGCAAT-3′TAMRA) (SEQ ID NO: 3) (Invitrogen), 18S rRNA (Applied Biosystems, Foster City, Calif.), and 2.0 μL of each RT sample in a final volume of 20 μL. The Taqman probe was designed to anneal to a specific sequence of the aromatase gene between the forward and the reverse primers. Cycling conditions were 50° C. for 2 mm and 95° C. for 10 mm, followed by 50 cycles at 95° C. for 15 s and 60° C. for 1 mm.
# as §1, with “extraction.” for “Extraction.”, “DNase,” for “DNase- and”
# as §2, with “synthesis.” for “Synthesis.”, “real-time” for “realtime”
# Real-time PCR. Real-time PCR was performed using the Opticon™ 2 system from MJ Research (Waltham, Mass.). For the CYP19 total gene the PCR reaction mixture consisted of Taqman® Universal PCR Master Mix (Applied Biosystems), 600 nM of CYP19 primer (sense: 5′-TGTCTCTTTGTTCTTCATGCTATTTCTC-3′ (SEQ ID NO: 1); antisense: 5′-TCACCAATAACAGTCTGGATTTCC-3′) (SEQ ID NO: 2); 250 nM Taqman probe (6FAM 5′-TGCAAAGCACCCTAATGTTGAAGAGGCAAT-3′TAMRA) (SEQ ID NO: 3) (Invitrogen), and 2.0 μL of each cDNA sample in a final volume of 20 μL. […]
IC50 [1] [µM],melting point [°C],inhibition at 15 µM [2] [%],Structure (SMILES),CYP19 gene expression [3]
–,163 to 165,< 50,"CN(c1ccc([N+](=O)[O-])cc1OCc1cccc2ccccc12)S(C)(=O)=O [Compound 38c, N-methyl-N-[2-(α-naphthylmethoxy) 4-nitrophenyl]methanesulfonamide]",–
3.96,83 to 84,–,"CCCCCCCCCOc1cc([N+](=O)[O-])ccc1N(C)S(C)(=O)=O [Compound 23, N-Methyl-N-(2-nonyloxy-4-nitrophenyl)methanesulfonamide]",–
> 25,125 to 126,–,"COc1cc([N+](=O)[O-])ccc1N(C)S(C)(=O)=O [Compound 25, N-Methyl-N-(2-methoxy-4-nitrophenyl)methanesulfonamide]",–
4.49,44 to 46,–,"CCCCCCOc1cc([N+](=O)[O-])ccc1N(C)S(C)(=O)=O [Compound 24, N-Methyl-N-(2-hexyloxy-4-nitrophenyl)methanesulfonamide]",–

# More lines, now with the values behind:
Structure (SMILES),IC50 [1] [µM],melting point [°C],inhibition at 15 µM [2] [%],CYP19 gene expression [3]
"CC(C)Oc1cc([N+](=O)[O-])ccc1N(C)S(C)(=O)=O [Compound 19, N-Methyl-N-(2-isopropyloxy-4-nitrophenyl)methanesulfonamide]",2.81,99 to 100,–,–
"CCCCCCCCCOc1cc([N+](=O)[O-])ccc1NS(C)(=O)=O [Compound 14, N-(2-Nonyloxy-4-nitrophenyl)methanesulfonamide]",0.91,70 to 71,–,–
"CC(C)Oc1cc([N+](=O)[O-])ccc1NS(C)(=O)=O [Compound 10, N-(2-Isopropyloxy-4-nitrophenyl)methanesulfonamide]",5.87,128 to 131,–,–
"CCCCCCOc1cc([N+](=O)[O-])ccc1NS(C)(=O)=O [Compound 15, N-(2-Hexyloxy-4-nitrophenyl)methanesulfonamide]",2.67,74 to 76,–,–
"COc1cc([N+](=O)[O-])ccc1NS(C)(=O)=O [Compound 16, N-(2-Methoxy-4-nitrophenyl)methanesulfonamide]",> 25,128 to 130,–,–
"CCCOc1cc([N+](=O)[O-])ccc1NS(C)(=O)=O [Compound 9, N-(2-Propyloxy-4-nitrophenyl)methanesulfonamide]",2.51,117 to 119,–,–
"CS(=O)(=O)Nc1ccc([N+](=O)[O-])cc1OCCc1ccccc1 [Compound 37b, N-(2-phenylethoxy 4-nitrophenyl) methanesulfonamide]",–,–,–,not affect the CYP19 gene expression
"CCCOc1cc([N+](=O)[O-])ccc1N(C)S(C)(=O)=O [Compound 18, N-Methyl-N-(2-propyloxy-4-nitrophenyl)methanesulfonamide]",0.76,66 to 69,–,–
